# Test results from US9237747B2, “Herbicidal compositions comprising 4-amino-3-chloro-5-fluoro-6-(4-chloro-2-fluoro-3-methoxyphenyl) pyridine-2-carboxylic acid or a derivative thereof and insecticides” (priority 2013, dated 2016).
# Several values for one entry are separate records, joined by “and”; a condition that tells them apart may be missing. Identical values can stand only once. Like-named read-outs stand apart in the source and are kept apart here.
# What was measured:
# DIGSA = type: in vivo, Digitaria sanguinalis
# Procedure: (§1) Seeds or nutlets of the desired test plant species were planted in a soil matrix prepared by mixing a loam or sandy loam soil (e.g., 28.6 percent silt, 18.8 percent clay, and 52.6 percent sand, with a pH of about 5.8 and an organic matter content of about 1.8 percent) and calcareous grit in an 80 to 20 ratio. The soil matrix was contained in plastic pots with a volume of 1 quart and a surface area of 83.6 square centimeters (cm^2). […] The plants were grown for 8-22 days in a greenhouse with an approximate 14 hour (h) photoperiod which was maintained at about 29° C. during the day and 26° C. during the night. Nutrients (Peters Excel® 15-5-15 5-Ca 2-Mg and iron chelate) were applied in the irrigation solution as needed and water was added on a regular basis. Supplemental lighting was provided with overhead metal halide 1000-Watt lamps as necessary. The plants were employed for testing when they reached the first through fourth true leaf stage.
# (§2) Treatments consisted of the acid or esters of 4-amino-3-chloro-6-(4-chloro-2-fluoro-3-methoxyphenyl)-5-fluoropyridine-2-carboxylic acid (Compound A), each formulated as an SC (suspension concentrate), and various insecticidal components alone and in combination. Forms of compound A were applied on an acid equivalent basis.
# (§3) For treatments comprised of formulated compounds, measured amounts of compounds were placed individually in 25 mL glass vials and diluted in a volume of 1.25% volume per volume (v/v) Agri-Dex® crop oil concentrate to obtain 12× stock solutions. […] Application solutions were prepared by adding an appropriate amount of each stock solution (e.g., 1 mL) and diluted to the appropriate final concentrations with the addition of […] of an aqueous mixture of 1.25% (v/v) crop oil concentrate so that the final spray solutions contained 1.25+/−0.05% (v/v) crop oil concentrate.
# (§4) As required, additional water and/or 97:3 v/v acetone/DMSO was added to individual application solutions so that the final acetone and DMSO concentrations of the application solutions being compared were 8.1% and 0.25%, respectively.
# (§5) All stock solutions and applications solutions were visually inspected for compound compatibility prior to application. Spray solutions were applied to the plant material with an overhead Mandel track sprayer equipped with 8002E nozzles calibrated to deliver 187 L/ha over an application area of 0.503 square meters (m^2) at a spray height of 18 to 20 inches (46 to 50 cm) above average plant canopy height. Control plants were sprayed in the same manner with the solvent blank.
# (§6) The treated plants and control plants were placed in a greenhouse as described above and watered by sub-irrigation to prevent wash-off of the test compounds. After approximately 3 weeks, the condition of the test plants as compared to that of the untreated plants was determined visually and scored on a scale of 0 to 100 percent where 0 corresponds to no injury or growth inhibition and 100 corresponds to complete kill.
# (§7) Colby's equation was used to determine the herbicidal effects expected from the mixtures (Colby, S. R. Calculation of the synergistic and antagonistic response of herbicide combinations. Weeds 1967, 15, 20-22.).
# (§8) The following equation was used to calculate the expected activity of mixtures containing two active ingredients, A and B: Expected=A+B−(A×B/100)
# IPOHE = type: in vivo, Ipomoea hederacea
# Procedure: as §1, §2, §3, §4, §5, §6, §7, §8
# LEFFA = assay: Postemergence foliar-applied weed control, direct-seeded rice (greenhouse); type: in vivo, Leptochloa fascicularis
# Source text: (§9) Seeds or nutlets of the desired test plant species were planted in a soil matrix prepared by mixing a loam or sandy loam soil (e.g., 28.6 percent silt, 18.8 percent clay, and 52.6 percent sand, with a pH of about 5.8 and an organic matter content of about 1.8 percent) and calcareous grit in an 80 to 20 ratio. The soil matrix was contained in plastic pots with a volume of 1 quart and a surface area of 83.6 square centimeters (cm^2). When required to ensure good germination and healthy plants, a fungicide treatment and/or other chemical or physical treatment was applied. The plants were grown for 8-22 days in a greenhouse with an approximate 14 hour (h) photoperiod which was maintained at about 29° C. during the day and 26° C. during the night. Nutrients (Peters Excel® 15-5-15 5-Ca 2-Mg and iron chelate) were applied in the irrigation solution as needed and water was added on a regular basis. Supplemental lighting was provided with overhead metal halide 1000-Watt lamps as necessary. The plants were employed for testing when they reached the first through fourth true leaf stage.
# as §2
# (§10) Treatment requirements were calculated based upon the rates being tested, the concentration of active ingredient or acid equivalent in the formulation, and a 12 milliliter (mL) application volume at a rate of 187 liters per hectare (L/ha).
# as §3, §4, §5, §6, §7, §8
# SCPJU = assay: as above; type: in vivo, Schoenoplectus juncoides; settings: 4.38 g ae/ha alone
# Source text: as §9, with “Supplemental lighting was provided with overhead metal halide 1000-Watt lamps as necessary. The plants were employed for testing when they reached the first through fourth true leaf stage.” left out
# as §10
# For treatments comprised of formulated compounds, measured amounts of compounds were placed individually in 25 mL glass vials and diluted in a volume of 1.25% volume per volume (v/v) Agri-Dex® crop oil concentrate to obtain 12× stock solutions. […]
compound,measurement,setting,value
COc1c(Cl)ccc(-c2nc(C(=O)OCc3ccccc3)c(Cl)c(N)c2F)c1F [Compound A Benzyl Ester],Visual Weed Control (%) - 20 DAA DIGSA Obs,DIGSA; 4.38 g ae/ha alone,40% and 25%
same,Visual Weed Control (%) - 20 DAA DIGSA Obs,DIGSA; 8 g ae/ha alone,20%
same,Visual Weed Control (%) - 21 DAA DIGSA Obs,DIGSA; 8 g ae/ha alone,10%
same,Visual Weed Control (%) - 22 DAA DIGSA Obs,DIGSA; 8 g ae/ha alone,13%
same,Visual Weed Control (%) - 20 DAA DIGSA Obs,DIGSA; 16 g ae/ha alone,23% and 30%
same,Visual Weed Control (%) - 22 DAA DIGSA Obs,DIGSA; 16 g ae/ha alone,18%
same,Visual Weed Control (%) - 20 DAA DIGSA Obs,DIGSA; 17.5 g ae/ha alone,15%
same,Visual Weed Control (%) - 19 DAA DIGSA Obs,DIGSA; 8 g ae/ha alone,30%
same,Visual Weed Control (%) - 19 DAA DIGSA Obs,DIGSA; 16 g ae/ha alone,35%
same,Visual Weed Control (%) - 19 DAA DIGSA Obs,DIGSA; 32 g ae/ha alone,40%
same,Visual Weed Control (%) - 22 DAA DIGSA Obs,"DIGSA; 22 DAA, 8 g ae/ha alone",10% and 13%
same,Visual Weed Control (%) - 22 DAA DIGSA Obs,"DIGSA; 22 DAA, 8 g ae/ha alone, second part of Table 18",13%
same,Visual Weed Control (%) - 22 DAA DIGSA Obs,"DIGSA; 22 DAA, 16 g ae/ha alone",25% and 18% and 20%
same,Visual Weed Control (%) - 22 DAA DIGSA Obs,"DIGSA; 22 DAA, 16 g ae/ha alone, second part of Table 18",18%
same,Visual Weed Control (%) - 22 DAA DIGSA Obs,"DIGSA; 22 DAA, 32 g ae/ha alone",40% and 28% and 25%
same,Visual Weed Control (%) - 22 DAA DIGSA Obs,"DIGSA; 22 DAA, 32 g ae/ha alone, second part of Table 18",28%
same,Visual Weed Control (%) - 20 DAA DIGSA Obs,DIGSA; 32 g ae/ha alone,30% and 40%
same,Visual Weed Control (%) - 22 DAA DIGSA Obs,DIGSA; 32 g ae/ha alone,28%
same,Visual Weed Control (%) - 20 DAA IPOHE Obs,IPOHE; 4.38 g ae/ha alone,10%
same,Visual Weed Control (%) - 20 DAA IPOHE Obs,IPOHE; 8 g ae/ha alone,10%
same,Visual Weed Control (%) - 21 DAA IPOHE Obs,IPOHE; 8 g ae/ha alone,10%
same,Visual Weed Control (%) - 20 DAA IPOHE Obs,IPOHE; 8.75 g ae/ha alone,15%
same,Visual Weed Control (%) - 20 DAA IPOHE Obs,IPOHE; 16 g ae/ha alone,40%
same,Visual Weed Control (%) - 21 DAA IPOHE Obs,IPOHE; 16 g ae/ha alone,50%
same,Visual Weed Control (%) - 22 DAA IPOHE Obs,IPOHE; 16 g ae/ha alone,10%
same,Visual Weed Control (%) - 19 DAA IPOHE Obs,IPOHE; 8 g ae/ha alone,20%
same,Visual Weed Control (%) - 19 DAA IPOHE Obs,IPOHE; 16 g ae/ha alone,40%
same,Visual Weed Control (%) - 19 DAA IPOHE Obs,IPOHE; 32 g ae/ha alone,50%
same,Visual Weed Control (%) - 21 DAA IPOHE Obs,"IPOHE; 21 DAA, 4.38 g ae/ha alone",10%
same,Visual Weed Control (%) - 21 DAA IPOHE Obs,"IPOHE; 21 DAA, 8 g ae/ha alone",10%
same,Visual Weed Control (%) - 21 DAA IPOHE Obs,"IPOHE; 21 DAA, 8.75 g ae/ha alone",10%
same,Visual Weed Control (%) - 21 DAA IPOHE Obs,"IPOHE; 21 DAA, 17.5 g ae/ha alone",20%
same,Visual Weed Control (%) - 22 DAA IPOHE Obs,"IPOHE; 22 DAA, 16 g ae/ha alone",10%
same,Visual Weed Control (%) - 22 DAA IPOHE Obs,"IPOHE; 22 DAA, 32 g ae/ha alone",35%
same,Visual Weed Control (%) - 20 DAA IPOHE Obs,IPOHE; 32 g ae/ha alone,50%
same,Visual Weed Control (%) - 21 DAA IPOHE Obs,IPOHE; 32 g ae/ha alone,60%
same,Visual Weed Control (%) - 22 DAA IPOHE Obs,IPOHE; 32 g ae/ha alone,35%
same,Visual Weed Control (%) - 22 DAA LEFFA Obs,LEFFA; 8 g ae/ha alone,23%
same,Visual Weed Control (%) - 22 DAA LEFFA Obs,LEFFA; 16 g ae/ha alone,30%
same,Visual Weed Control (%) - 22 DAA LEFFA Obs,"LEFFA; 22 DAA, 8 g ae/ha alone",23%
same,Visual Weed Control (%) - 22 DAA LEFFA Obs,"LEFFA; 22 DAA, 16 g ae/ha alone",30%
same,Visual Weed Control (%) - 22 DAA LEFFA Obs,"LEFFA; 22 DAA, 32 g ae/ha alone",45%
same,Visual Weed Control (%) - 22 DAA LEFFA Obs,LEFFA; 32 g ae/ha alone,45%
same,Visual Weed Control (%) - 22 DAA SCPJU Obs,SCPJU,70%
"COc1c(Cl)ccc(-c2nc(C(=O)O)c(Cl)c(N)c2F)c1F [Compound A Acid, 4-amino-3-chloro-6-(4-chloro-2-fluoro-3-methoxyphenyl)-5-fluoropyridine-2-carboxylic acid]",Visual Weed Control (%) - 20 DAA DIGSA Obs,DIGSA; 4.38 g ae/ha alone,40%
same,Visual Weed Control (%) - 20 DAA DIGSA Obs,DIGSA; 5.3 g ae/ha alone,15%
same,Visual Weed Control (%) - 20 DAA DIGSA Obs,DIGSA; 10.6 g ae/ha alone,35%
same,Visual Weed Control (%) - 20 DAA DIGSA Obs,DIGSA; 21.2 g ae/ha alone,50%
same,Visual Weed Control (%) - 21 DAA IPOHE Obs,IPOHE; 5.3 g ae/ha alone,10%
same,Visual Weed Control (%) - 21 DAA IPOHE Obs,IPOHE; 10.6 g ae/ha alone,10%
same,Visual Weed Control (%) - 21 DAA IPOHE Obs,"IPOHE; 21 DAA, 5.3 g ae/ha alone",10%
same,Visual Weed Control (%) - 21 DAA IPOHE Obs,"IPOHE; 21 DAA, 10.6 g ae/ha alone",10%
same,Visual Weed Control (%) - 21 DAA IPOHE Obs,"IPOHE; 21 DAA, 21.2 g ae/ha alone",25%
same,Visual Weed Control (%) - 21 DAA IPOHE Obs,IPOHE; 21.2 g ae/ha alone,25%
